Consider 73 compounds from the SangsterLogP compilation.

Data set [1] is described as follows: method code SF-HPLC, from DOI: 10.1002/jps.1029, PMID: 11357176.

In turn, `Cc1sc2c(C)cc3c(C)cc(=O)oc3c2c1C` had a logP of 4.09.
The compound `Cc1cc2c(C)c3ccc(=O)oc3cc2o1` came in with a logP of 2.84.
Same read-out and setting: the same measure for `Cc1cc2c(ccc3c(C)c(C)c(=O)n(C)c32)o1`: 3.54.
Same read-out and setting: the figure for `Cc1c(C)c2cc3c(C)coc3c(C)c2oc1=O` is 3.62.
Regarding `Cc1coc2c(C)c3oc(=O)ccc3cc12`, the logP amounted to 2.81.
The same measure, in the same setting: the figure for `Cc1cc2c(ccc3c(C)cc(=O)n(C)c32)o1` is 3.08; for `Cc1cc(=O)oc2c(C)c3occc3cc12` it is 2.82.
Still for that read-out and setting: the same measure for `Cc1oc2ccc3c(C)cc(=O)[nH]c3c2c1C`: 3.18.
Still for that read-out and setting: the same measure for `Cc1cc2ccc(=O)oc2c2c(C)coc12`: 2.88; for `Cc1cc2cc3ccc(=O)oc3c(C)c2o1`: 2.93; for `Cc1coc2nc3oc(=O)cc(C)c3cc12`: 1.82.
Regarding `Cc1oc2cc3oc(=O)ncc3cc2c1C`, the logP was found to be 1.97.
Same read-out and setting: the figure for `Cc1oc2ccc3ccc(=O)oc3c2c1C` is 2.94; for `Cc1cc2c(o1)c(C)cc1ccc(=O)oc12` it is 2.85.
Still for that read-out and setting: the figure for `Cc1cc(=O)n(C)c2c1cc(C)c1occ(C)c12` is 3.3.
`COc1c2oc(=O)c(C)cc2cc2c(C)c(C)oc12` gave a logP of 3.28.
`Cc1cc2ccc3occc3c2oc1=O`: the logP stood at 2.49.
On the same count and under the same terms, the same measure for `O=c1ccc2cc3ccsc3cc2o1`: 2.27.
On the same count and under the same terms, the figure for `Cc1c(C)c2ccc3occ(C)c3c2oc1=O` is 3.25; for `Cc1cc2c(ccc3c(C)c(C)c(=O)oc32)o1` it is 3.27; for `Cc1cc2c(o1)c(C)c(C)c1ccc(=O)oc12` it is 3.26.
Same read-out and setting: the figure for `O=c1ccc2ccc3occc3c2s1` is 2.58; for `Cc1cc(=O)oc2c1ccc1occc12` it is 2.34; for `Cc1cc2c(ccc3ccc(=O)oc32)o1` it is 2.49.
Turning to `Cc1c(C)c2cc3ccoc3c(C)c2oc1=O`, the lipophilicity (logP) was 3.25.
With `Cc1cc2occc2c2oc(=O)ccc12`, the logP came to 2.5.
Regarding `Cc1oc2nc3oc(=O)c(C)c(C)c3cc2c1C`, the logP was 2.71.
As to `O=c1ccc2cc3ccsc3cc2s1`, the logP was 2.96.
In the case of `COc1c2occc2cc2ccc(=O)oc12`, in data set [1], the lipophilicity (logP) amounted to 2.07.
`Cc1cc2cc3c(C)cc(=O)oc3cc2o1` displayed a logP of 2.82.
Still for that read-out and setting: the same measure for `Cc1cc2c(o1)c(C)cc1c(C)cc(=O)n(C)c12`: 3.43; for `Cc1oc2nc3oc(=O)ccc3c(C)c2c1C`: 2.19.
Compound `Cc1coc2cc3oc(=O)cc(C)c3cc12` displayed a logP of 2.76.
Same read-out and setting: the same measure for `Cc1c2ccoc2cc2oc(=O)ccc12`: 2.33; for `Cc1c(C)c2occc2c2oc(=O)ccc12`: 2.84.
On the same count and under the same terms, the figure for `Cc1sc2cc3oc(=O)cc(C)c3cc2c1C` is 3.48; for `Cc1coc2c1c(C)cc1oc(=O)cc(C)c12` it is 3.28.
`Cc1cc2c(cc(C)c3ccc(=O)oc32)o1` displayed a logP of 2.92.
Same read-out and setting: the figure for `O=c1ccc2ccc3occc3c2[nH]1` is 1.82; for `Cc1cc2c(cc(C)c3c(C)cc(=O)oc32)o1` it is 3.36.
On the same count and under the same terms, the same measure for `Cc1oc2c(C)cc3c(C)cc(O)nc3c2c1C`: 3.5.
As to `O=c1ccc2cc3ccoc3cc2o1`, in data set [1], the logP came out at 2.08.
In the case of `Cc1cc2ccc3occ(C)c3c2oc1=O`, the logP stood at 2.97.
Still for that read-out and setting: the same measure for `Cc1oc2cc3oc(=O)ccc3cc2c1C`: 2.93; for `Cc1c2oc(=O)ccc2c(C)c2c(C)coc12`: 3.35; for `Cc1coc2cc3oc(=O)ccc3c(C)c12`: 2.79.
Same read-out and setting: the figure for `Cc1cc2c(ccc3cc(C)c(=O)oc32)o1` is 2.97.
Consider `Cc1oc2cc3oc(=O)ccc3c(C)c2c1C`, for which the log partition coefficient (logP) stood at 3.27.
Regarding `Cc1cc2occ(C)c2c2oc(=O)ccc12`, the logP was determined as 2.92.
Still for that read-out and setting: the figure for `Cc1coc2ccc3ccc(=O)oc3c12` is 2.51; for `Cc1cc2c(o1)c(C)cc1c(C)cc(=O)oc12` it is 3.15.
Consider `COc1c2occc2cc2ccc(=O)sc12`, for which the log partition coefficient (logP) was determined as 2.66.
The same measure, in the same setting: the figure for `Cc1coc2nc3oc(=O)cc(C)c3c(C)c12` is 2.25.
The same measure, in the same setting: the same measure for `Cc1c2occc2cc2ccc(=O)oc12`: 2.48.
Compound `Cc1c(C)c2cc(C)c3occc3c2oc1=O` came in with a log partition coefficient (logP) of 3.23.
On the same count and under the same terms, the figure for `Cc1oc2c(C)cc3ccc(=O)oc3c2c1C` is 3.34; for `Cc1oc2cc3oc(=O)cc(C)c3cc2c1C` it is 3.22.
The same measure, in the same setting: the figure for `Cc1cc(=O)[nH]c2c1cc(C)c1occ(C)c12` is 3.13; for `Cc1oc2ccc3c(C)cc(=O)oc3c2c1C` it is 3.28; for `Cc1cc(=O)oc2c1cc(C)c1occ(C)c12` it is 3.23.
On the same count and under the same terms, the same measure for `Cc1c(C)c2cc3c(C)coc3nc2oc1=O`: 2.25; for `Cc1coc2c(C)c3oc(=O)cc(C)c3cc12`: 3.25.
As to `O=c1ccc2cc3ccoc3cc2s1`, the logP is 2.61.
The same measure, in the same setting: the same measure for `Cc1cc2ccc(=O)oc2c2ccoc12`: 2.43.
The same measure, in the same setting: the figure for `Cc1cc2c(C)cc3oc(=O)cc(C)c3c2o1` is 3.25.
Still for that read-out and setting: the figure for `Cc1cc(=O)oc2c1ccc1occ(C)c12` is 2.81.
`Cc1coc2nc3oc(=O)ccc3c(C)c12`: the logP is 1.73.
Consider `Cc1sc2ccc3c(C)cc(=O)oc3c2c1C`, for which the logP worked out at 3.65.
Consider `Cc1cc2cc3c(C)cc(=O)oc3c(C)c2o1`, for which the logP came to 3.25.
The same measure, in the same setting: the same measure for `Cc1coc2cc3oc(=O)ccc3cc12`: 2.47; for `Cc1c(C)c2cc3ccoc3cc2oc1=O`: 2.77; for `Cc1cc2c(ccc3c(C)cc(=O)oc32)o1`: 2.79.
Same read-out and setting: the figure for `Cc1cc(=O)oc2c1cc(C)c1occc12` is 2.79.

As usually defined, the logP is a log measure of how a compound divides between an organic and an aqueous phase. A low value points to lower lipophilicity.
